Results: ChEMBL document CHEMBL1142905, “1,4-Bis(alkylamino)benzo[g]phthalazines able to form dinuclear complexes of Cu(II) which as free ligands behave as SOD inhibitors and show efficient in vitro activity against Trypanosoma cruzi” (Bioorg Med Chem, 2007)
≈ marks a conversion by molar mass, not a printed value.

How the values were obtained:
[1] = species: Homo sapiens; experiment: Inhibition of Cu-Zn SOD in human erythrocytes at 1 ug/mL; assay type: cell-based
[2] = test system: Trypanosoma cruzi; experiment: Inhibition of Fe-SOD in Trypanosoma cruzi Maracay at 10 ug/mL
[3] = species: Homo sapiens; experiment: Inhibition of Cu-Zn SOD in human erythrocytes at 10 ug/mL; assay type: cell-based
[4] = Toxicity against Vero cells after 72 hrs; assay type: cell-based; conditions: Chlorocebus sabaeus (African green monkey)
[5] = test system: Trypanosoma cruzi; experiment: Inhibition of Fe-SOD in Trypanosoma cruzi Maracay at 25 ug/mL
[6] = test system: Trypanosoma cruzi; experiment: Inhibition of Trypanosoma cruzi Maracay epimastigotes after 24 hrs; assay type: functional, organism-based
[7] = species: Homo sapiens; experiment: Inhibition of Cu-Zn SOD in human erythrocytes at 25 ug/mL; assay type: cell-based
[8] = test system: Trypanosoma cruzi; experiment: Inhibition of Fe-SOD in Trypanosoma cruzi Maracay at 1 ug/mL
[9] = test system: Trypanosoma cruzi; experiment: Inhibition of Trypanosoma cruzi Maracay epimastigotes after 48 hrs; assay type: functional, organism-based
[10] = test system: Trypanosoma cruzi; experiment: Inhibition of Trypanosoma cruzi Maracay epimastigotes after 72 hrs; assay type: functional, organism-based
[11] = test system: Trypanosoma cruzi; experiment: Inhibition of rate of infection with Trypanosoma cruzi Maracay metacyclic form in Vero cells at 5 ug/mL after 8 days; assay type: functional; conditions: 192 h
[12] = test system: Trypanosoma cruzi; experiment: Reduction of Trypanosoma cruzi Maracay trypomastigote infection in Vero cells; assay type: functional; design: scale not given: the % may be the effect or the level left
[13] = test system: Trypanosoma cruzi; experiment: Reduction of Trypanosoma cruzi Maracay amastigotes infection in Vero cells at 5 ug/Ml after 8 days relative to control; assay type: functional; design: scale not given: the % may be the effect or the level left
[14] = test system: Trypanosoma cruzi; experiment: Inhibition of rate of infection with Trypanosoma cruzi Maracay metacyclic form in Vero cells at 5 ug/mL after 2 days; assay type: functional; design: scale not given: the % may be the effect or the level left

Row | SMILES | inhibition [1] | inhibition [2] | inhibition [3] | IC50 at 72 h [4] | inhibition [5] | IC50 [6] | inhibition [7] | inhibition [8] | IC50 [9] | IC50 [10] | inhibition at 5 µg/mL [11] | Activity [12] | Activity [13] | Activity [14]
1 | OCCOCCNc1nnc(NCCOCCO)c2cc3ccccc3cc12 | 0% | 34% | 0% | 93.5 µg/mL (≈ 242 µM) | 53% | 75.4 µg/mL (≈ 195 µM) | 0% | 27% | 62.6 µg/mL (≈ 162 µM) | 30.6 µg/mL (≈ 79.2 µM) | – | – | – | –
2 | O=C(Cn1ccnc1[N+](=O)[O-])NCc1ccccc1 [BENZNIDAZOLE] | – | – | – | 3.53 µg/mL (≈ 13.6 µM) | – | – | – | – | – | – | – | – | – | –
3 | NCCOCCNc1nnc(NCCOCCN)c2cc3ccccc3cc12 | 0% | 73% | 11% | 67.3 µg/mL (≈ 175 µM) | 100% | – | 17% | 48% | 15.6 µg/mL (≈ 40.6 µM) | 12 µg/mL (≈ 31.3 µM) | 57% | 65% | 43% | –
4 | c1ccc(COCCCNc2nnc(NCCCOCc3ccccn3)c3cc4ccccc4cc23)nc1 | 0% | 68% | 7% | 6.25 µg/mL (≈ 12.3 µM) | 75% | 56.8 µg/mL (≈ 112 µM) | 11% | 64% | 12.8 µg/mL (≈ 25.3 µM) | 3.25 µg/mL (≈ 6.39 µM) | 68% | 74% | 44% | 35%
